This assay deals with T1, PFKFB3 (Homo sapiens, UniProt Q16875).
T1 construct: GST (cleaved yes); host or cells: Rosetta cells (bacteria)
In words: PFK-2 kinase activity assay (coupled PPi-PFK assay), recombinant PFKFB3. The assay is classed as biochemical. As to conditions: recombinant PFKFB3, concentration course. On the procedure: Recombinant Protein Expression: PFKFB2, PFKFB1, and PFKFB3 constructs (Origene) were subcloned into GST expression vector. Mutation of PFKFB2 at K174 to G [3], H259 to A [4], and the double mutant were created using Quickchange methodology. All constructs were transformed into Rosetta cells (Milipore), expressed and induced following standard protocol. Bacteria were harvested via centrifugation and pellets resuspended in 10 mL sonication buffer (50 mM TrisHCl pH 7.5, 10% glycerol, 150 mM NaCl, 10 mM Imidazole, 10 uL 1M DTT, and 1 protease inhibitor tablet). Cells were sonicated (power lvl 5, 45 s, 4×, QSonica) at 4° C. and spun 10 krpm for 10 min at 4° C. to collect protein lysate. […] Protein concentration was determined by Nanodrop (Thermo).
The resultant F-2,6-BP levels were determined by pyrophosphate-fructose-6-phosphate phosphotransferase (PPi-PFK) activity. After the preincubation phase, the F-2,6-BP/PFK2 mixture was diluted 10× by 50 mM pH 8.0 Tris assay buffer, supplemented with 5 mM Mg^2+, 0.5 mM PPi and 1 mM F-6-P. The PPi-PFK activity was measured as the rate of NADH oxidation (ε340=6200 M^−1 cm^−1) following the addition of 150 μM NADH to a mixture of excess PPi-PFK, 0.1 μg/mL triosephosphate isomerase, 10 μg/mL glycerol-3-phosphate dehydrogenase, and 0.01 U/mL aldolase. […]

The structures appear in SMILES notation.

Our source for the IC50 values is patent publication US20260102379A1, “Inhibitor of PFKFB2 Kinase Activity and Cellular Glycolysis” (Oklahoma Medical Research Foundation, priority 2024, published 2026).

T1 sequence (Q16875 whole entry, species assumed): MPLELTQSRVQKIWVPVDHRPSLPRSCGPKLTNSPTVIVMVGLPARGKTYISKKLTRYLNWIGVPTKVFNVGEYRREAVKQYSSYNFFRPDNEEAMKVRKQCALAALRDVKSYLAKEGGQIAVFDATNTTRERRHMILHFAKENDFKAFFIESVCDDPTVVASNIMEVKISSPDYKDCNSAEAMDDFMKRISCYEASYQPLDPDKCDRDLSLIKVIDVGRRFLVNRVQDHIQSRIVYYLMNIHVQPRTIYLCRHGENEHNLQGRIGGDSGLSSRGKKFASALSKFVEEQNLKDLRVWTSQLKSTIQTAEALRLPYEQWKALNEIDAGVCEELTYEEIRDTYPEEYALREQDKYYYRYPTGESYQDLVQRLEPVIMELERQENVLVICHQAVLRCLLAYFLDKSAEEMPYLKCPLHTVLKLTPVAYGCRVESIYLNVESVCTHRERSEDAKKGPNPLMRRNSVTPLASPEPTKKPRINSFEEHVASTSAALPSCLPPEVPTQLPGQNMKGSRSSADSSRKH

As for `COc1ccccc1Nc1nnc(S)s1` [B2, 5-[(2-methoxyphenyl)amino]-1,3,4-thiadiazole-2-thiol], the IC50 (in general, the midpoint of a concentration-inhibition curve) was 11.9 µM.
The result for `O=C(/C=C/c1ccc2ccc(C(F)(F)F)cc2n1)c1ccncc1` [PFK158] reads 8.94 µM.
